From ChEMBL document CHEMBL5678818, “Discovery of potent SOS1 inhibitors that block RAS activation via disruption of the RAS-SOS1 interaction” (Proc Natl Acad Sci U S A, 2019)

Columns and labels:
[1] = target: T1, Mitogen-activated protein kinase kinase kinase 19 (Homo sapiens) (UniProt Q56UN5); assay: Inhibition of YSK4 (unknown origin) assessed as residual activity at 1000 nM by KINOMEscan analysis relative to control
T1 sequence (whole entry): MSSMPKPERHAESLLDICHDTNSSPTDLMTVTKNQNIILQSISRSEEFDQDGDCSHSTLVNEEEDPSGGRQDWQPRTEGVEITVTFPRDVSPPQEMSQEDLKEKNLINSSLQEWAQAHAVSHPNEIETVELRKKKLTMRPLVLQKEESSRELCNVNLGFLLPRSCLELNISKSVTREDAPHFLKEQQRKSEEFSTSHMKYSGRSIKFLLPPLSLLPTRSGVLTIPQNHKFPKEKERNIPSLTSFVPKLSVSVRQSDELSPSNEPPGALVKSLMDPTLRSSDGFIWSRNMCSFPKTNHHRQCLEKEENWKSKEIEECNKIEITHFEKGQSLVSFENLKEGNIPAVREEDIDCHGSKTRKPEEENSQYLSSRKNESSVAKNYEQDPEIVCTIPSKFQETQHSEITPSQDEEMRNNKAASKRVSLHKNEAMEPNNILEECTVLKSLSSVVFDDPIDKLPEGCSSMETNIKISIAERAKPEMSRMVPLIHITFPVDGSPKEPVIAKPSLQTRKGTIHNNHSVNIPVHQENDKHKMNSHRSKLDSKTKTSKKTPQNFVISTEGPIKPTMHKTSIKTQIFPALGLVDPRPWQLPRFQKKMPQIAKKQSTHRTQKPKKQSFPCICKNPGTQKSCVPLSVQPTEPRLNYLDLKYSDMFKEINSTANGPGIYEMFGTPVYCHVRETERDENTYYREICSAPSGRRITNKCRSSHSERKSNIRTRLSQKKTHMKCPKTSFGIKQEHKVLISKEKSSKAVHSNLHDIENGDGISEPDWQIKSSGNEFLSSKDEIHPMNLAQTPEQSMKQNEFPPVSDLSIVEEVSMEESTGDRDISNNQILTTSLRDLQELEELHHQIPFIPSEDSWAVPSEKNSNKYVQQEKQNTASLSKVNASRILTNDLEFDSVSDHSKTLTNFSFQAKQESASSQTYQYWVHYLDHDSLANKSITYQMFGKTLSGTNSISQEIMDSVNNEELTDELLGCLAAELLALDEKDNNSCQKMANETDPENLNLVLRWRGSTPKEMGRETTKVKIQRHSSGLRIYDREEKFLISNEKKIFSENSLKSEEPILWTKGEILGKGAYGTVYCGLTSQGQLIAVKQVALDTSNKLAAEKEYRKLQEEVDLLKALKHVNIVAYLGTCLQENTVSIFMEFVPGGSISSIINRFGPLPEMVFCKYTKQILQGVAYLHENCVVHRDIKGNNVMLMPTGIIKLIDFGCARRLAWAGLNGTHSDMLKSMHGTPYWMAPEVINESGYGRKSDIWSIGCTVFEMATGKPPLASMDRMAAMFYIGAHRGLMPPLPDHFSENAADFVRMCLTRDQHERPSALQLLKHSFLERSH

[2] = target: Death-associated protein kinase 2 (Homo sapiens) (UniProt Q9UIK4); assay: Inhibition of DAPK2 (unknown origin) assessed as residual activity at 1000 nM by KINOMEscan analysis relative to control
Chain of Death-associated protein kinase 2 (Homo sapiens) (Q9UIK4 whole entry, looked up): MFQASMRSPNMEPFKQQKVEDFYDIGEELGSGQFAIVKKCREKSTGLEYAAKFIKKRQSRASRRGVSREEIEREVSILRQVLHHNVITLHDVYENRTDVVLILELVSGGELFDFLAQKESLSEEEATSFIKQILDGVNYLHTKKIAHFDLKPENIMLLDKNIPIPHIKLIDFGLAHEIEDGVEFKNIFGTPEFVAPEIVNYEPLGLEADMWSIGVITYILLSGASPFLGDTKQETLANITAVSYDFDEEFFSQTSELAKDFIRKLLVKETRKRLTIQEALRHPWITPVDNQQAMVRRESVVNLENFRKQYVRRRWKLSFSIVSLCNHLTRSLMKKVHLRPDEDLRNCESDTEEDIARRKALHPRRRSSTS

[3] = target: T2, Mitogen-activated protein kinase kinase kinase 6 (Homo sapiens) (UniProt O95382); assay: Inhibition of ASK2 (unknown origin) assessed as residual activity at 1000 nM by KINOMEscan analysis relative to control
T2 sequence (whole entry): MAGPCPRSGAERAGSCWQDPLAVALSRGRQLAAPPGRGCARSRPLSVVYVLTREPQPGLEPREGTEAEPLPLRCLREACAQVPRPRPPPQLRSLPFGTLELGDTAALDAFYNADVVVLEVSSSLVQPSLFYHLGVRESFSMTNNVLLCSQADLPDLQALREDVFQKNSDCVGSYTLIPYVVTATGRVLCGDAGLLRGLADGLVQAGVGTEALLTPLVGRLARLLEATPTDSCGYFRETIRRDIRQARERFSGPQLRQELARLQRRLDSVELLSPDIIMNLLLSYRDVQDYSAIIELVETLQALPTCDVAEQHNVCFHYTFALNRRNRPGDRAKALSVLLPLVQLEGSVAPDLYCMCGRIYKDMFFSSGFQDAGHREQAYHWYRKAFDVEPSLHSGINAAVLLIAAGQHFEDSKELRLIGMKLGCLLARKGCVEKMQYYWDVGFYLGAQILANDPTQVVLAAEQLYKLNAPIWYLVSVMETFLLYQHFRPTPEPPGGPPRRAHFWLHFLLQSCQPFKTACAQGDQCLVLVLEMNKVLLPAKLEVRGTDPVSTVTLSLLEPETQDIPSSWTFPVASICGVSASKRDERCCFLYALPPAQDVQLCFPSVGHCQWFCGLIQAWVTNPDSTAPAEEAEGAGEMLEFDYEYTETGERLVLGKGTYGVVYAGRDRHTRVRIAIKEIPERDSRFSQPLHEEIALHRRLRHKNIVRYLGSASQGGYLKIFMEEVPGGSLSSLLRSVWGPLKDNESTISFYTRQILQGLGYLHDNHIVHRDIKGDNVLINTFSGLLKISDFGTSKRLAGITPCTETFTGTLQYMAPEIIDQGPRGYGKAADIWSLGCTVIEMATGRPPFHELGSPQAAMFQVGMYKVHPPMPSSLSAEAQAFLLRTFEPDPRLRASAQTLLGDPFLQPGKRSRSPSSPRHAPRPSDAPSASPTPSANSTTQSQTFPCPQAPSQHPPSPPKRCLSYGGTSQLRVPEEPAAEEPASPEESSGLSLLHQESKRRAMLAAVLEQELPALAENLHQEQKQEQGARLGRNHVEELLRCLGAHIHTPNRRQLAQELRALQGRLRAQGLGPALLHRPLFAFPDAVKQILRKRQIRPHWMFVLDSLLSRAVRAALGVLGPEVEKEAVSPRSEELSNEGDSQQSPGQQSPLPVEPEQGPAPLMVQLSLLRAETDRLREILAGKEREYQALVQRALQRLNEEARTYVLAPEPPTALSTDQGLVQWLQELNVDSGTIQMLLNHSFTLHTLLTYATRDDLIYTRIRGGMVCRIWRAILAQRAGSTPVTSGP

[4] = test system: Phosphatidylinositol 4,5-bisphosphate 3-kinase catalytic subunit alpha isoform (Homo sapiens), P42336 [E545K]; assay: Inhibition of PIK3CA E545K mutant (unknown origin) assessed as residual activity at 1000 nM by KINOMEscan analysis relative to control
Chain of Phosphatidylinositol 4,5-bisphosphate 3-kinase catalytic subunit alpha isoform (Homo sapiens), P42336 [E545K] (P42336 whole entry E545K, canonical isoform): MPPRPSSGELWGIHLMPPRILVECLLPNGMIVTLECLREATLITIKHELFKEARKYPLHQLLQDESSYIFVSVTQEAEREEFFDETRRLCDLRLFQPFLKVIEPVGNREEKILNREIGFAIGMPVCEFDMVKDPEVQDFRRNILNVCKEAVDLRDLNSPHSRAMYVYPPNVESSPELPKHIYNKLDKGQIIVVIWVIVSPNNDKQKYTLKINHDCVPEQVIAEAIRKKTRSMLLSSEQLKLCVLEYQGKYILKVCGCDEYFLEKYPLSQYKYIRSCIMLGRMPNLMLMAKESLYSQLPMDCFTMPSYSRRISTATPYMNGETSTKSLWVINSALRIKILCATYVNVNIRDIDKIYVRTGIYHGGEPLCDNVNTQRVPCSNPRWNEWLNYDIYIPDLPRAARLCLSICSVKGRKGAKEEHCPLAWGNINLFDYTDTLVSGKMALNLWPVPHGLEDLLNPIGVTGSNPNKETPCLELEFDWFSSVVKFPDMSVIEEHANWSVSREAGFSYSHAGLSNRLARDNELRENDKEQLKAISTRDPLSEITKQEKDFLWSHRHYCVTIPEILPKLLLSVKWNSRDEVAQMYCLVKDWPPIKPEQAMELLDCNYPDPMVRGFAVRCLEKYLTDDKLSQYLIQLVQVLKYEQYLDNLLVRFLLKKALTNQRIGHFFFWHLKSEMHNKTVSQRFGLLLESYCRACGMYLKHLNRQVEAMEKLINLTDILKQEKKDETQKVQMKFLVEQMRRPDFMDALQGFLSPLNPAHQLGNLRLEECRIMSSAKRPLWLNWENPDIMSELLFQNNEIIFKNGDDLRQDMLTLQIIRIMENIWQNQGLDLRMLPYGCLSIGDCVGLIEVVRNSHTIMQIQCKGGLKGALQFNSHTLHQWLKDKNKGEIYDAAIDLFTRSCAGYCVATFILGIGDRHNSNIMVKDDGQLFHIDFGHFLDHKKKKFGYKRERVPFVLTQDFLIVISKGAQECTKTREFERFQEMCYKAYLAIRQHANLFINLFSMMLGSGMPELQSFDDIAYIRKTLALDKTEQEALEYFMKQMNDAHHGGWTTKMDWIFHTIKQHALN

SMILES | Activity [1] [%] | Activity [2] [%] | Activity [3] [%] | Activity [4] [%]
COc1cc2nc(C)nc(N[C@H](C)c3cccc(-c4cn[nH]c4)c3)c2cc1OC | 84 | 73 | 69 | 54
COc1cc2ncnc(N[C@H](C)c3cccc4ccccc34)c2cc1OC | 90 | 99 | 67 | 98
